The values that follow come from US6410735B1, “1-(4-arylpiperazin-1-y1)-ω-[N-(α,ω-dicarboximido)]-alkanes useful as uro-selective α1-adrenoceptor blockers” (Ranbaxy Laboratories Limited, priority 1997, dated 2002).

Assay [1] concerns the target T1, α1A-adrenoceptor (prostate) (Rattus norvegicus, UniProt P43140).
T1 construct: Aorta, prostate and spleen tissues were isolated from urethane anaesthetized (1.5 gm/kg) male wistar rats; from tissue; host or cells: isolated prostate of male Wistar rats
T1 sequence (P43140 1-466): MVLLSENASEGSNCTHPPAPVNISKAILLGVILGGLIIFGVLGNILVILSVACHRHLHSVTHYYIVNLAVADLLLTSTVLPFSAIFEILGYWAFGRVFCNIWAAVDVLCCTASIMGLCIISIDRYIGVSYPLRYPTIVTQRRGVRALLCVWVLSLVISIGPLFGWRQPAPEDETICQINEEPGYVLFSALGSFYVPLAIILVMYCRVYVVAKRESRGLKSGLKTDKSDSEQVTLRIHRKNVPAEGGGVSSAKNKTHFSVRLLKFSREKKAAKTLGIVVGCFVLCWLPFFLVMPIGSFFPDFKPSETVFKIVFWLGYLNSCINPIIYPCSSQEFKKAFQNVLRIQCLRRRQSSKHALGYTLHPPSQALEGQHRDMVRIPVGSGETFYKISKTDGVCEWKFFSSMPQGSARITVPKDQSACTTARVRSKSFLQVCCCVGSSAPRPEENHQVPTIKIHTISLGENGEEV
As to the kind of experiment: In vitro functional assay, phenylephrine-induced contraction of isolated prostate. In kind it is cell-based. The following applies: rat prostate, phenylephrine; read-out: In Vitro Functional Assay (pKB) α1A (converted). From the text:
(§1) In order to study selectivity of action of the present compounds towards different α-adrenoceptor subtypes, the ability of these compounds to antagonize α1-adrenoceptor agonist induced contractile response of aorta (α1D), prostate (α1A) and spleen (α1B) was studied. Aorta, prostate and spleen tissues were isolated from urethane anaesthetized (1.5 gm/kg) male wistar rats. Isolated tissues were mounted in organ bath containing Krebs Henseleit buffer of the following composition (mM): NaCl 118; KCl 4.7; CaCl2 2.5; MgSO4·H2O 1.2; NaHCO3 25; KH2PO4 1.2; glucose 11.5. Buffer was maintained at 37° C. and aerated with a mixture of 95% O2 and 5% CO2. A resting tension of 2 g (aorta) or 1 g (spleen and prostate) was applied to tissues. Contractile response was monitored using a force displacement transducer and recorded on chart recorders. Tissues were allowed to equilibrate for 2 hours. At the end of equilibration period, concentration response curves to norepinephrine (aorta) and phenylephrine (spleen and prostate) were obtained in the absence and presence of the tested compound (at concentrations of 0.1, 1 and 10 μM). Antagonist affinity was calculated and expressed as PKB values in Table 1.

The target of assay [2] is T2, α1D-adrenoceptor (aorta) (Rattus norvegicus, UniProt P23944).
T2 construct: Aorta, prostate and spleen tissues were isolated from urethane anaesthetized (1.5 gm/kg) male wistar rats; from tissue; host or cells: isolated aorta of male Wistar rats
T2 sequence (P23944 1-561): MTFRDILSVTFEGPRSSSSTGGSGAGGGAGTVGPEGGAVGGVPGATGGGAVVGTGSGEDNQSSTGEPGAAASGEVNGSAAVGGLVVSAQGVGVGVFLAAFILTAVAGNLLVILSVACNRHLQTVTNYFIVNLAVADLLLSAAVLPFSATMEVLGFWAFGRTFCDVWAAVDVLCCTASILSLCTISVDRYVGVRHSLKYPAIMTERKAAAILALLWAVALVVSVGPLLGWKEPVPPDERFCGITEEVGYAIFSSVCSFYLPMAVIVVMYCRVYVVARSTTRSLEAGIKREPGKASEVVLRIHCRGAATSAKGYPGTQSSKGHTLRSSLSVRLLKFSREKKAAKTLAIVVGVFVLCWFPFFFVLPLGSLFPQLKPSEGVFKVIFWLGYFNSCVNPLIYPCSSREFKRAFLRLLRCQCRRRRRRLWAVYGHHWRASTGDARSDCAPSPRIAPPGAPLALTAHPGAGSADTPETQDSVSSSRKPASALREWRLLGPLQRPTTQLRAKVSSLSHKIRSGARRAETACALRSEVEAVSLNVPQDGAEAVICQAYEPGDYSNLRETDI
In words: In vitro functional assay, norepinephrine-induced contraction of isolated aorta. It counts as cell-based. The settings on record: rat aorta, norepinephrine; read-out: In Vitro Functional Assay (pKB) α1D (converted).
From the text: as §1

Assay [3] has as its target T3, 5-HT2A (Rattus norvegicus, UniProt P14842).
T3 construct: from tissue; host or cells: rat aorta
In words: Receptor selectivity, rat aorta. It counts as cell-based. The settings on record: read-out: pKB 5-HT2A (converted). The protocol:
(§2) Selectivity of action of the present compounds was tested against a range of different receptors, e.g., β1- and α2-adrenergic, muscarinic cholinergic, serotoninergic (5-HT2A), histaminergic (H1), angiotensin II, endothelin (ETA and B,), as well as calcium and potassium channels. Rat aorta was used to study the effect of the compounds on 5-HT2A, ETA, calcium and potassium channels. Angiotensin II receptor antagonistic activity was studied in rabbit aorta. Muscarinic cholinergic receptor and ETB receptor antagonistic activity was studied in rat trachea, while guinea pig trachea was used to study H1 receptor antagonistic activity. Electrically stimulated rat vas deferens was used to investigate the effect of α2-adrenoceptors, while β1-adrenoceptor antagonistic activity was studied using electrically stimulated rat ventricular strips. Results of this selectivity study is shown in (Table 2).

Assay [4] relates to anaesthetized dogs (blood pressure). In words: In vivo selectivity study, phenylephrine response on blood pressure in anaesthetized dogs. The arrangement: species or system dog. The following applies: Canis lupus familiaris, iv 0.01-0.3 mg/kg, against phenylephrine, read-out: pseudo pKB Blood Pressure (converted). The protocol:
(§3) Male mongrel dogs (12-20 Kg) were anaesthetized with pentobarbitone sodium (35 mg/kg, iv). Trachea was intubated for artificial respiration. Femoral artery and femoral vein were cannulated for recording blood pressure and for administration of drug solutions, respectively. Blood pressure was recorded on a polygraph through a pressure transducer. A paramedian incision was made lateral to the penis and the bladder was exposed. Urine was drained through a cannula put directly into the bladder and it was guided into the urethra gently and was placed at the prostatic urethra. Balloon was inflated with 2 cc air and its placement was confirmed by digital pressure. Intraurethral pressure was recorded on the polygraph through a pressure transducer. Graded dose response relationship of phenylephrine (1-16 μg/kg, iv) was obtained on prostatic pressure and blood pressure, prior to administration of the compounds of the present invention. Compounds 2, 9, and 13 (at dosages of 0.01, 0.03, 0.1, and 0.3 mg/kg) were administered intravenously 10 min before obtaining phenylephrine dose response curves. Results were analyzed and pseudo PKB values were calculated as described in Kenny et al (1996).

Assay [5] has as its system anaesthetized dogs (intraurethral pressure). In words: In vivo selectivity study, phenylephrine response on intraurethral (prostatic) pressure in anaesthetized dogs. Details: species or system dog. The following applies: Canis lupus familiaris, iv 0.01-0.3 mg/kg, against phenylephrine, read-out: pseudo pKB Intraurethral Pressure (converted). As for the experimental part: as §3

The target of assay [6] is T4, β1-adrenoceptor (Rattus norvegicus, UniProt P18090).
T4 construct: from tissue; host or cells: rat ventricular strips
In words: Receptor selectivity, electrically stimulated rat ventricular strips. It counts as cell-based. The settings on record: read-out: pKB B-adrenergic (converted). The protocol: as §2

T3 sequence (P14842 whole entry): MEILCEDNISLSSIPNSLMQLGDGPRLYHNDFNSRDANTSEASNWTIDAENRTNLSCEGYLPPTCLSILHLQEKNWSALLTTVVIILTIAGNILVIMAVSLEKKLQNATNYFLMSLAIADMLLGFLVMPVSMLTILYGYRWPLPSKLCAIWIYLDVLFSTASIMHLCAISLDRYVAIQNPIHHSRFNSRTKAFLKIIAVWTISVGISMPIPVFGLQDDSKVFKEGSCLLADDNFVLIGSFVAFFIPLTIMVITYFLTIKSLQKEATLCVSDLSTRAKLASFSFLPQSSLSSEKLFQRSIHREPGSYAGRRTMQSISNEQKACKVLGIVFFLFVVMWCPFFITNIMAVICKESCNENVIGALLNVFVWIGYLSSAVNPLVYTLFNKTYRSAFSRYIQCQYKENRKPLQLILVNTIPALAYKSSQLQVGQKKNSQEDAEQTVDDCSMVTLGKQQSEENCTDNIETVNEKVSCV
T4 sequence (P18090 whole entry): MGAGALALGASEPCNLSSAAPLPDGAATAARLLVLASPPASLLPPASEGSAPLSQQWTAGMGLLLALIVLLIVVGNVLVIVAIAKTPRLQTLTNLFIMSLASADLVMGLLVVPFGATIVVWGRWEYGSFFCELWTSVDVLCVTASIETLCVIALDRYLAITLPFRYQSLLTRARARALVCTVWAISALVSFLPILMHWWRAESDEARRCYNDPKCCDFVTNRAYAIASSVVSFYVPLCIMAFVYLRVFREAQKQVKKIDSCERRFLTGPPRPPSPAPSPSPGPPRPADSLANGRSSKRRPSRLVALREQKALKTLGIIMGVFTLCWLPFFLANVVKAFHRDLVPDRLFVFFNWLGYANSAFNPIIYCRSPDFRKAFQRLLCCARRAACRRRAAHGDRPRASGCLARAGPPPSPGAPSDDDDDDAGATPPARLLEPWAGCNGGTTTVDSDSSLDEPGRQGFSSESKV

Regarding `COc1ccccc1N1CCN(CCCCN2C(=O)CCC2=O)CC1` [Compound 9, 1-[4-(2-Methoxyphenyl)piperazin-1-yl]-4-(2,5-dioxopyrrolidin-1-yl)butane], the Kb in assay [1] is 1 nM; in assay [2], 5.01 nM; in assay [3], 12.6 nM; in assay [4], 39.8 nM; in assay [5] it was 12.6 nM.

On to `COc1ccccc1N1CCN(CCCN2C(=O)CCCC2=O)CC1` [Compound 13, 1-[4-(2-Methoxyphenyl)piperazin-1-yl]-3-(2,6-dioxopiperidin-1-yl)propane], for which the Kb in assay [1] is 2.51 nM; in assay [2], 12.6 nM; in assay [6], 7.94 µM; in assay [3] it was 10 nM; in assay [4], 79.4 nM; in assay [5] it was 7.94 nM.

`COc1ccccc1N1CCN(CCCN2C(=O)CCC2=O)CC1` [Compound 2, 1-[4-(2-Methoxyphenyl)piperazin-1-yl]3-(2,5-dioxopyrrolidin-1-yl)propane]: the Kb was 2 nM in assay [1]; 50.1 nM in assay [2]; 63.1 µM in assay [6]; 25.1 nM in assay [3]; 126 nM in assay [4]; 25.1 nM in assay [5].
